Data as given in paper PMC9301601 (Frontiers in Pharmacology, 2022).

Test system: hiPSC-CMs
Assay: Action potential recording in hiPSC-CMs, whole-cell patch-clamp (current-clamp)
Type: cell-based, human
Conditions: LPV-treated hiPSC-CMs, Figure 6H

Cc1cccc(C)c1OCC(=O)N[C@@H](Cc1ccccc1)[C@@H](O)C[C@H](Cc1ccccc1)NC(=O)[C@H](C(C)C)N1CCCNC1=O [LPV, lopinavir]
Interval (spontaneous rate interval): 1.4 ± 0.3 s
